For 14 molecules, IC50 results are on record in patent publication US10947272B2, “BACE1 inhibitor peptides” (HOFFMANN-LA ROCHE INC., priority 2015, dated 2021).

Structures can show the parent of a compound that is named as a salt. Where two headings read alike, the source gives them in different places. Numbered stars: 1 amine (or outer) side, 2 acyl side, 3 side chain; on linkers, the order of the positions; unused ones are H or OH. Square brackets hold non-standard residues; d marks the D form. Peptide text beside a SMILES is read from it. MetSta(3S,4S) = CSCC[C@H](N[*:1])[C@@H](O)CC(=O)[*:2]; Sta = CC(C)C[C@H](N)[C@@H](O)CC(=O)O; PEG4 = NCCOCCOCCOCCOCCC(=O)O A value given as a limit tells only on which side of the number the result lay.

In the test the target is T1, BACE1 (Homo sapiens, UniProt P56817).
T1 construct: Human HEK293 cells which are stably transfected with a vector expressing a cDNA of the human APP wt gene (APP695); endogenous in cells; host or cells: HEK293 (human), stably transfected with human APP695 wt cDNA
In words: Cellular Aβ-lowering assay (Aβ40 ELISA of culture supernatant). Type of test: cell-based. The following applies: HEK293 cells stably transfected with human APP wt (APP695), Aβ40 in supernatant. The method, then: The compounds were investigated in accordance with the test given hereinafter. Cellular Aβ-Lowering Assay: Human HEK293 cells which are stably transfected with a vector expressing a cDNA of the human APP wt gene (APP695) were used to assess the potency of the compounds in a cellular assay. The cells were seeded in 96-well microtiter plates in cell culture medium (Iscove, plus 10% (v/v) fetal bovine serum, glutamine, penicillin/streptomycin) to about 80% confluence and the compounds were added at a 10× concentration in 1/10 volume of medium without FCS containing 8% DMSO (final concentration of DMSO was kept at 0.8% v/v). After 18-20 hrs incubation at 37° C. and 5% CO2 in a humidified incubator the culture supernatant was harvested for the determination of Aβ40 concentrations. 96 well ELISA plates (e.g., Nunc MaxiSorb) were coated with monoclonal antibody which specifically recognize the C-terminal end of Aβ40 (Brockhaus et al., NeuroReport 9, 1481-1486; 1998). After blocking of non-specific binding sites with e.g. 1% BSA and washing, the culture supernatants were added in suitable dilutions together with a horseradish peroxidase-coupled Aβ detection antibody (e.g., antibody 4G8, Senetek, Maryland Heights, Mo.) and incubated for 5 to 7 hrs. Subsequently the wells of the microtiter plate were washed extensively with Tris-buffered saline containing 0.05% Tween 20 and the assay was developed with tetramethylbenzidine/H2O2 in citric acid buffer. After stopping the reaction with one volume 1 N H2SO4 the reaction was measured in an ELISA reader at 450 nm wavelength. The concentrations of Aβ in the culture supernatants were calculated from a standard curve obtained with known amounts of pure Aβ peptide.

Setting [1] is: IC 50, dual-site BACE1 inhibitors, 18-20 hrs incubation.
The mark [2] stands for this setting: exosite motifs alone, read-out: IC 50.
[3] abbreviates: dual-site BACE1 inhibitors, 18-20 hrs incubation, read-out: IC 50.

T1 sequence (P56817 46-501): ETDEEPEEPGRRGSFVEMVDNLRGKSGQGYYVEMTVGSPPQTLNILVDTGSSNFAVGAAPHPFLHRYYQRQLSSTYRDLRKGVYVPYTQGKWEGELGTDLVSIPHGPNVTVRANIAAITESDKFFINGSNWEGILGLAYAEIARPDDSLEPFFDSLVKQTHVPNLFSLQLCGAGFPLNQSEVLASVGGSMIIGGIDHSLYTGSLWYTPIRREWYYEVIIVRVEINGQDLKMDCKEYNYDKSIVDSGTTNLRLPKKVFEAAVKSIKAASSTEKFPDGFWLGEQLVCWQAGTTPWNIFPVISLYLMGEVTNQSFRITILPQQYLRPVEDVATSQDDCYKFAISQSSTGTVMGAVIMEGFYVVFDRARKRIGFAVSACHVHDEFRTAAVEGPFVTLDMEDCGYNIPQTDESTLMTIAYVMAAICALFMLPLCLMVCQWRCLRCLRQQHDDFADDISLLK

`CC(C)C[C@H](NC(=O)[C@@H]1CCCN1C(=O)[C@@H](CCCCN)NC(=O)[C@H](Cc1ccccc1)NC(=O)[C@H](Cc1ccc(O)cc1)NC(=O)[C@@H]1CCCN1C(=O)[C@@H](N)Cc1ccc(O)cc1)C(=O)NCCOCCOCCOCCOCCC(=O)N[C@@H](CCC(=O)O)C(=O)N[C@H](C(=O)N[C@@H](CC(N)=O)C(=O)N[C@@H](CC(C)C)[C@@H](O)CC(=O)N[C@H](C(=O)N[C@@H](C)C(=O)N[C@@H](CCC(=O)O)C(=O)N1CCC[C@@H]1C(N)=O)C(C)C)C(C)C` [Example 24, H-Tyr-Pro-Tyr-Phe-DLys-Pro-Leu-PEG(4)-Glu-Val-Asn-Sta-Val-Ala-Glu-DPro-NH2 × 2TFA] (H-YPYF[dK]PL[PEG4]EVN[Sta]VAE[dP]-NH2): under setting [1], the IC50 is greater than 40 µM. On to `CSCC[C@H](NC(=O)[C@H](CC(N)=O)NC(=O)[C@@H](NC(=O)[C@@H](N)CCC(=O)O)C(C)C)[C@@H](O)CC(=O)N[C@H](C(=O)N[C@@H](C)C(=O)N[C@@H](CCC(=O)O)C(=O)N[C@H](Cc1ccccc1)C(N)=O)C(C)C` [Example A2, Glu-Val-Asn-MetSta-Val-Ala-Glu-DPhe-NH2 × TFA, reference compound] (H-EVN[MetSta(3S,4S)]VAE[dF]-NH2), for which the IC50 (active site motifs alone, read-out: IC 50) is greater than 40 µM. Regarding `CC[C@H](C)[C@H](NC(=O)[C@H](Cc1ccccc1)NC(=O)[C@H](CCCCN)NC(=O)[C@@H]1CCCN1C(=O)[C@H](Cc1ccc(O)cc1)NC(=O)[C@H](CC(=O)O)NC(=O)CNC(C)=O)C(=O)N[C@@H](CO)C(=O)N[C@@H](C)C(=O)N[C@@H](CC(N)=O)C(N)=O` [Example E4, Ac-Gly-Asp-Tyr-Pro-Lys-Phe-Ile-Ser-Ala-Asn-NH2] (Ac-GDYPKFISAN-NH2), the IC50 under setting [2] was greater than 40 µM. Consider `CC[C@H](C)[C@H](NC(=O)[C@H](Cc1ccccc1)NC(=O)[C@H](Cc1ccc(O)cc1)NC(=O)[C@@H](CCCCN)NC(=O)[C@@H](N)Cc1ccc(O)cc1)C(=O)N1CCC[C@H]1C(=O)N[C@@H](CC(C)C)C(=O)NCC(=O)N[C@H](CCCCN)C(=O)NCC(=O)N[C@@H](CCC(=O)O)C(=O)N[C@H](C(=O)N[C@@H](CC(N)=O)C(=O)N[C@@H](CC(C)C)[C@@H](O)CC(=O)N[C@H](C(=O)N[C@@H](C)C(=O)N[C@@H](CCC(=O)O)C(=O)N1CCC[C@@H]1C(N)=O)C(C)C)C(C)C` [Example 31, H-Tyr-DLys-Tyr-Phe-Ile-Pro-Leu-Gly-DLys-Gly-Glu-Val-Asn-Sta-Val-Ala-Glu-DPro-NH2] (H-Y[dK]YFIPLG[dK]GEVN[Sta]VAE[dP]-NH2), for which the IC50 under setting [3] is greater than 40 µM. With `CC[C@H](C)[C@H](NC(=O)[C@H](Cc1ccccc1)NC(=O)[C@H](Cc1ccc(O)cc1)NC(=O)[C@@H]1CCCN1C(=O)[C@@H](N)Cc1ccc(O)cc1)C(=O)N[C@H](CCCCN)C(=O)N[C@@H](CC(C)C)C(=O)NCC(=O)N[C@H](CCCCN)C(=O)NCC(=O)N[C@@H](CCC(=O)O)C(=O)N[C@H](C(=O)N[C@@H](CC(N)=O)C(=O)N[C@@H](CC(C)C)[C@@H](O)CC(=O)N[C@H](C(=O)N[C@@H](C)C(=O)N[C@@H](CCC(=O)O)C(=O)N1CCC[C@@H]1C(N)=O)C(C)C)C(C)C` [Example 12, Tyr-Pro-Tyr-Phe-Ile-DLys-Leu-Gly-DLys-Gly-Glu-Val-Asn-Sta-Val-Ala-Glu-DPro-NH2 × 3TFA] (H-YPYFI[dK]LG[dK]GEVN[Sta]VAE[dP]-NH2), the IC50 under setting [3] was greater than 40 µM.

`CC[C@H](C)[C@H](NC(=O)[C@H](Cc1ccccc1)NC(=O)[C@H](Cc1ccc(O)cc1)NC(=O)[C@@H]1CCCN1C(=O)[C@@H](N)Cc1ccc(O)cc1)C(=O)N1CCC[C@H]1C(=O)N[C@@H](CC(C)C)C(=O)NCC(=O)NCC(=O)NCC(=O)N[C@@H](CCC(=O)O)C(=O)N[C@H](C(=O)N[C@@H](CC(N)=O)C(=O)N[C@@H](CC(C)C)[C@@H](O)CC(=O)N[C@H](C(=O)N[C@@H](C)C(=O)N[C@@H](CCC(=O)O)C(=O)N1CCC[C@@H]1C(N)=O)C(C)C)C(C)C` [Example 2, Tyr-Pro-Tyr-Phe-Ile-Pro-Leu-Gly-Gly-Gly-Glu-Val-Asn-Sta-Val-Ala-Glu-DPro-NH2 × TFA]: under setting [3], the IC50 came out at 0.42 µM. As for `CC(C)C[C@H](NC(=O)[C@@H]1CCCN1C(=O)[C@@H](CCCCN)NC(=O)[C@H](Cc1ccccc1)NC(=O)[C@H](Cc1ccc(O)cc1)NC(=O)[C@@H]1CCCN1C(=O)[C@@H](N)Cc1ccc(O)cc1)C(=O)NCC(=O)N[C@H](CCCCN)C(=O)NCC(=O)N[C@@H](CCC(=O)O)C(=O)N[C@H](C(=O)N[C@@H](CC(N)=O)C(=O)N[C@@H](CC(C)C)[C@@H](O)CC(=O)N[C@H](C(=O)N[C@@H](C)C(=O)N[C@@H](CCC(=O)O)C(=O)N1CCC[C@@H]1C(N)=O)C(C)C)C(C)C` [Example 13, Tyr-Pro-Tyr-Phe-DLys-Pro-Leu-Gly-DLys-Gly-Glu-Val-Asn-Sta-Val-Ala-Glu-DPro-NH2 × 3TFA] (H-YPYF[dK]PLG[dK]GEVN[Sta]VAE[dP]-NH2), the IC50 under setting [3] was greater than 40 µM.

Turning to `CC[C@H](C)[C@H](NC(=O)[C@H](Cc1ccccc1)NC(=O)[C@H](CCCCN)NC(=O)[C@@H]1CCCN1C(=O)[C@H](Cc1ccc(O)cc1)NC(=O)[C@H](CO)NC(=O)CNC(C)=O)C(=O)N[C@@H](CC(=O)O)C(=O)N[C@@H](C)C(=O)N[C@@H](CC(N)=O)C(N)=O` [Example E6, Ac-Gly-Ser-Tyr-Pro-Lys-Phe-Ile-Asp-Ala-Asn-NH2] (Ac-GSYPKFIDAN-NH2), the IC50 under setting [2] was greater than 40 µM.

Regarding `CC(C)C[C@H](NC(=O)[C@@H](CCCCN)NC(=O)[C@H](Cc1ccccc1)NC(=O)[C@H](Cc1ccc(O)cc1)NC(=O)[C@@H]1CCCN1C(=O)[C@@H](N)Cc1ccc(O)cc1)C(=O)NCCOCCOCCOCCOCCC(=O)N[C@@H](CCC(=O)O)C(=O)N[C@H](C(=O)N[C@@H](CC(N)=O)C(=O)N[C@@H](CC(C)C)[C@@H](O)CC(=O)N[C@H](C(=O)N[C@@H](C)C(=O)N[C@@H](CCC(=O)O)C(=O)N1CCC[C@@H]1C(N)=O)C(C)C)C(C)C` [Example 23, H-Tyr-Pro-Tyr-Phe-DLys-Leu-PEG(4)-Glu-Val-Asn-Sta-Val-Ala-Glu-DPro-NH2 × 3TFA] (H-YPYF[dK]L[PEG4]EVN[Sta]VAE[dP]-NH2), the IC50 under setting [3] was greater than 40 µM. Same read-out and setting: the result for `CC[C@H](C)[C@H](NC(=O)[C@H](Cc1ccccc1)NC(=O)[C@H](Cc1ccc(O)cc1)NC(=O)[C@@H]1CCCN1C(=O)[C@@H](N)Cc1ccc(O)cc1)C(=O)N1CCC[C@H]1C(=O)N[C@H](CCCCN)C(=O)NCC(=O)N[C@H](CCCCN)C(=O)NCC(=O)N[C@@H](CCC(=O)O)C(=O)N[C@H](C(=O)N[C@@H](CC(N)=O)C(=O)N[C@@H](CCSC)[C@@H](O)CC(=O)N[C@H](C(=O)N[C@@H](C)C(=O)N[C@@H](CCC(=O)O)C(=O)N1CCC[C@H]1C(N)=O)C(C)C)C(C)C` [Example 18, Tyr-Pro-Tyr-Phe-Ile-Pro-DLys-Gly-DLys-Gly-Glu-Val-Asn-MetSta-Val-Ala-Glu-Pro-NH2 × 3TFA] reads 0.015 µM. Consider “YQTFKPANGS [Example E2, Ac-Tyr-Gln-Thr-Phe-Lys-Pro-Ala-Asn-Gly-Ser-NH2, exosite motif peptide tested alone]”, for which the IC50 under setting [2] was greater than 40 µM. Under setting [1], `CC[C@H](C)[C@H](NC(=O)[C@@H](CCCCN)NC(=O)[C@H](Cc1ccc(O)cc1)NC(=O)[C@@H]1CCCN1C(=O)[C@@H](N)Cc1ccc(O)cc1)C(=O)N1CCC[C@H]1C(=O)N[C@@H](CC(C)C)C(=O)NCC(=O)N[C@H](CCCCN)C(=O)NCC(=O)N[C@@H](CCC(=O)O)C(=O)N[C@H](C(=O)N[C@@H](CC(N)=O)C(=O)N[C@@H](CC(C)C)[C@@H](O)CC(=O)N[C@H](C(=O)N[C@@H](C)C(=O)N[C@@H](CCC(=O)O)C(=O)N1CCC[C@@H]1C(N)=O)C(C)C)C(C)C` [Example 33, H-Tyr-Pro-Tyr-DLys-Ile-Pro-Leu-Gly-DLys-Gly-Glu-Val-Asn-Sta-Val-Ala-Glu-DPro-NH2] (H-YPY[dK]IPLG[dK]GEVN[Sta]VAE[dP]-NH2) registered an IC50 of 34.8 µM.

Regarding `CC[C@H](C)[C@H](NC(=O)[C@H](Cc1ccccc1)NC(=O)[C@H](CCCCN)NC(=O)[C@@H]1CCCN1C(=O)[C@H](Cc1ccc(O)cc1)NC(=O)[C@H](CC(=O)O)NC(=O)CNC(C)=O)C(=O)N1CCC[C@H]1C(=O)N[C@@H](C)C(=O)N[C@@H](CO)C(N)=O` [Example E5, Ac-Gly-Asp-Tyr-Pro-Lys-Phe-Ile-Pro-Ala-Ser-NH2] (Ac-GDYPKFIPAS-NH2), the IC50 under setting [2] was greater than 40 µM. In the case of `CC(=O)N[C@@H](CCC(N)=O)C(=O)N[C@@H](CCC(N)=O)C(=O)N[C@@H](Cc1ccc(O)cc1)C(=O)N1CCC[C@H]1C(=O)N[C@@H](Cc1ccc(O)cc1)C(=O)N[C@@H](Cc1ccccc1)C(=O)N[C@@H](CCCCN)C(=O)N1CCC[C@H]1C(=O)N[C@@H](C)C(=O)N[C@@H](CC(N)=O)C(N)=O` [Example E1, Ae-Gln-Gln-Tyr-Pro-Tyr-Phe-Lys-Pro-Ala-Asn-NH2] (Ac-QQYPYFKPAN-NH2), the IC50 under setting [2] was greater than 40 µM.
